From US20160193240A1, “Ulmoside-A: Useful For Prevention Or Cure Of Metabolic Diseases” (COUNCIL OF SCIENTIFIC & INDUSTRIAL RESEARCH, priority 2013, published 2016)

Experiments:
wistar rats [1] = experiment: Dexamethasone-mediated imbalance in serum Na, K level in rats; type: in vivo, rat; conditions: Dex + Vehicle, 14 days
Experimental: Food intake was measured daily and the rats were weighed each week. The rats were fasted overnight (O/N) on day 14th and on day 15th oral glucose tolerance test was performed. Following oral glucose tolerance test (OGTT), rats were kept with food and water ad libitum for one day. On day 16th, rats were fasted again O/N and then euthanized. At autopsy, from 5 animals/group, tissues were collected and snap frozen in liquid nitrogen. Blood was collected from cardiac punctures. Plasma was separated from whole blood by centrifugation at 3000 rpm for 20 min immediately after collection of blood and stored at −80° C. until further analysis. Forelimb (quadriceps) skeletal muscles were processed for RNA and protein extraction, followed by quantitative real-time PCR (QRT-PCR) analysis. Two animals from each group were used for photography post autopsy.

wistar rats [2] = experiment: Dexamethasone-mediated reduction of food intake in rats; type: in vivo, rat; conditions: Dex alone 200 μg/kg IP
Experimental: Six to eight week old wistar rats (n=6 per group) were housed separately and treated as indicated in the example. Daily food intake was measured and plotted. […] Data represents mean+/−SEM.
(§1) Blood was collected from cardiac punctures.
Food intake was measured every alternate day by giving measured food to each cage in evening (5.00 PM) and collection of residual food in next morning (9.00 AM) and measuring it. The residual food was subtracted from the food given and plotted.

wistar rats [3] = experiment: Dexamethasone-mediated reduction in serum osteocalcin in rats (ELISA); type: in vivo, rat; conditions: Dex alone, 14 days
Experimental: (§2) Food intake was measured daily and the rats were weighed each week. The rats were fasted overnight (O/N) on day 14th and on day 15th oral glucose tolerance test was performed. Following oral glucose tolerance test (OGTT), rats were kept with food and water ad libitum for one day. On day 16th, rats were fasted again O/N and then euthanized. At autopsy, from 5 animals/group, tissues were collected and snap frozen in liquid nitrogen. Blood was collected from cardiac punctures. Plasma was separated from whole blood by centrifugation at 3000 rpm for 20 min immediately after collection of blood and stored at −80° C. until further analysis. […] (quadriceps) skeletal muscles were processed for RNA and protein extraction, followed by quantitative real-time PCR (QRT-PCR) analysis. Two animals from each group were used for photography post autopsy.

wistar rats [4] = experiment: Dexamethasone induced loss of body weight and death in rats; conditions: Dex alone (200 μg/kg IP), 2 weeks
Experimental: All animal experiments were conducted in accordance with current legislation on animal experiments [Institutional Animal Ethical Committee (IAEC)] at C.D.R.I. In all animal experiments, rats were individually housed at 21° C., in 12-h light:12-h dark cycles. All animals had access to normal chow diet and water ad libitum.
as §2

wistar rats [5] = experiment: Dexamethasone-induced skeletal muscle atrophy in rats (limb appearance, QRT-PCR of PGC-1α and atrogenes); type: in vivo, rat; conditions: Dex alone
Experimental: Following 15 d indicated treatment of rats, the skeletal muscle (pulled hind limb) were collected and RNA was extracted from them and QRT-PCR was performed in a Roche lightcycler 480 machine. Data represents mean+/−SEM from six animals done in triplicates. “a” statistical analysis between Vehicle and Dexamethasone-treated groups, “b”, statistical analysis between dex-treated and dex+ ULMA groups. P<0.05, as determined by student's t-test, n=6.
as §1
RNA was isolated from skeletal muscles using Trizol (according to manufacturers' protocol) and reverse transcribed as described above and either PGC-1α expression or muscle atrophy related genes (atrogenes) expression were examined.

GAL-PPARα = experiment: PPARα activation assay (GAL-PPARα / GAL4-Luc reporter) in HEK293 cells expressing endogenous AdipoR1; type: cell-based, human; conditions: 100 pM GW-7647 alone, 6 hours, HEK293
Experimental: A. ULMA enhances PPARα ligand activity; HEK293 cells were seeded on to 24 well plates and after 24 h, transfected with 100 ng of GAL-PPARα and 100 ng GAL4-Luc along with 100 ng eGFPC1 (Clontech) plasmids using lipofectamine LTX (Invitrogen) according to manufacturer's instructions. 24 h after transfection, cells were treated with or without 100 pM GW-7647 alone or in combination with 100 nM ULMA or 1 μg/ml globular adiponectin (gAd) for 6 h. Following which, the cells were lysed and GFP fluorescence and firefly luciferase activities were measured. Luciferase activity was normalized with GFP fluorescence and plotted as fold activity over vehicle (0.1% DMSO) treated control. Data shown in mean±SEM of three independent experiments performed in duplicates. *p<0.05 as determined by two tailed unpaired student's t-test.
The potential of ULMA to activate adiponectin receptor signaling was evaluated using a PPARα activation assay. […] 24 hours following plating, these cells were transfected with 100 ng of GAL-PPARα (PPARα cDNA fused with GAL4 DNA binding domain) and 100 ng GAL4 upstream activation sequence driven luciferase (GAL4-Luc) reporter gene that is capable of binding to any protein fused to GAL4-DNA binding domain (in this case GAL-PPARα) and 100 ng Green fluorescence expressing plasmid (GFP) that was used as an internal control, using lipofectamine LTX transfection reagent (Invitrogen) according to manufacturers' instructions. […] The cells were then lysed and luciferase activity was measured in a Promega GloMax luminometer using steady Glo luciferase assay kit (Promega) according to manufacturers' instructions; and GFP fluorescence was measured in a fluorimeter (Polarstar Galaxy, BMG Labtech). […]

Row | Compound | K (wistar rats [1]) [mM] | food intake (wistar rats [2]) | Osteocalcin (wistar rats [3]) [ng/mL] | Survival/group (%) (wistar rats [4]) | appearance of denuded forelimb and hindlimb (wistar rats [5]) | mRNA levels of atrogenes (Atrogin-1/MAFbx, MuRF1, Cathepsin L, Glul) in skeletal muscle (wistar rats [5]) | increase of luciferase activity over vehicle-treated controls (GAL-PPARα) [folds]
1 | C[C@@H]1C[C@H]2[C@@H]3CCC4=CC(=O)C=C[C@]4(C)[C@@]3(F)[C@@H](O)C[C@]2(C)[C@@]1(O)C(=O)CO [Dex, Dexamethasone, reference compound] | 3.47 ± 0.13 | robust loss in food-intake | 263.5 ± 6.4 | 46.7 | severe abnormality in the limbs | robustly induced | 
2 | CC(C)(Sc1ccc(CCN(CCCCC2CCCCC2)C(=O)NC2CCCCC2)cc1)C(=O)O [GW-7647, reference compound] |  |  |  |  |  |  | 2
